# Laboratory results as given in PMC6277767, “Broad and Region-Specific Impacts of the Synthetic Cannabinoid CP 55,940 in Adolescent and Adult Female Mouse Brains” (Frontiers in Molecular Neuroscience, 2018).
# Test system: CD1 female mouse brain lipidome
# Assay: Brain-region lipid levels (HPLC/MS/MS lipidomics) 2 h after single i.p. 3 mg/kg CP 55,940 vs vehicle
# Type: in vivo
# Method: The Bloomington Institutional Animal Care and Use Committee of Indiana University reviewed and approved the animal procedures. Female mice from the CD1 strain were utilized to match our study examining THC’s effects on the brain lipidome ([Leishman et al., 2018]). Mice were given a single i.p. injection of either 3 mg/kg CP or 1:1:18 cremophor:ethanol:saline vehicle (please refer to the section “3 mg/kg CP Is Relevant for Synthetic Cannabinoid Abuse and Has Stronger Effects on the Female Mouse Brain Lipidome During Adolescence” for a justification of dose and use of female mice). Three different age groups were given injections: PND 35 and PND 50 adolescents, and adult mice (PND 113). At least eight mice in each age group received CP and at least eight received vehicle. Matching the THC study time course ([Leishman et al., 2018]), mice were sacrificed via rapid decapitation 2 h after injection. Brains were immediately removed and flash-frozen in liquid nitrogen, and then stored at -80°C until dissections were performed. Brains were dissected on an ice-cold dissection plate into the following regions: STR, HIPP, CER, THAL, CTX, HYP, MID, and STEM. These abbreviations for these brain areas will be used exclusively when discussing the results generated by these specific dissections. Each dissected area was immediately placed in liquid nitrogen and then stored at -80°C until used for lipid extraction.
# Tissue extracts were performed as previously described ([Bradshaw et al., 2006]; [Stuart et al., 2013]; [Raboune et al., 2014]; [Leishman et al., 2016a],[b], [2017], [2018]). First, samples were shock frozen in liquid nitrogen, weighed, and transferred to a centrifuge tube. The mass of the largest sample was multiplied by 50 to determine how many milliliters of HPLC-grade methanol (Fisher, Fair Lawn, NJ, United States) to add. Then, samples were spiked with 500 pmol deuterium-labeled NAGly (d8NAGly; Cayman Chemical, Ann Arbor, MI, United States). Samples were placed on ice in darkness for 2 h then individually homogenized and centrifuged at 19,000 × g for 20 min at 20°C. Supernatants were diluted with HPLC water (purified in house) to make a solution of 75% water, 25% supernatant. Lipids were partially purified on C18 solid phase extraction columns (Agilent, Palo Alto, CA, United States). A series of four elutions with 1.5 mL of 60%, 75%, 85%, and 100% methanol were collected ([Stuart et al., 2013]; [Leishman et al., 2016a],[b], [2018]).
# As previously described ([Bradshaw et al., 2006]; [Tan et al., 2006]; [Smoum et al., 2010]; [Stuart et al., 2013]; [Tortoriello et al., 2013]; [Raboune et al., 2014]; [Leishman et al., 2016a],[b], [2017], [2018]), samples were analyzed using an Applied Biosystems API 3000 triple quadrupole mass spectrometer with electrospray ionization (Foster City, CA, United States). Using an Agilent XDB-C18 reversed phase analytical column and optimized mobile phase gradients, 20 μL from each elution were chromatographed. Two Shimadzu 10ADvp pumps (Columbia, MD, United States) provided the pressure for gradient elution. Mobile phase A: 20% methanol, 80% water (v/v) and 1 mM ammonium acetate (Sigma, St. Louis, MO, United States). Mobile phase B: 100% methanol, 1 mM ammonium acetate. Every method run began with 0% mobile phase B, reached 100% mobile phase B flowing at 0.2 mL/min, and gradually returned to 0% mobile phase B.
# This screening library will be referred to as the lipidome when discussing data from this study. HPLC/MS/MS data were analyzed using Analyst software (Applied Biosystems) ([Bradshaw et al., 2006]; [Tan et al., 2006]; [Stuart et al., 2013]; [Tortoriello et al., 2013]; [Raboune et al., 2014]; [Leishman et al., 2016a],[b], [2017], [2018]). Chromatograms (Supplementary Figure 3) were generated by determining the retention time of analytes from the analytical column with a [M-1] or [M+1] parent peak and a fragmentation peak corresponding to the programmed values. […]
compound,measurement,setting,value
"CCCCCCC(C)(C)c1ccc([C@@H]2C[C@H](O)CC[C@H]2CCCO)c(O)c1 [CP 55,940]",changes in lipid levels that were decreases,PND 50 MID,two
same,number of lipids changed,"PND 50 MID, 62 detected",26
same,2-linoleoyl glycerol level vs vehicle,PND 50 STEM,↓ (1-1.49 times lower than vehicle)
same,2-oleoyl glycerol level vs vehicle,PND 50 STEM,↓ (1-1.49 times lower than vehicle)
same,2-palmitoyl glycerol level vs vehicle,PND 50 STEM,↓ (1-1.49 times lower than vehicle)
same,6-ketoPGF1α level vs vehicle,PND 50 STEM,↓ (1-1.49 times lower than vehicle)
same,Linoleic acid level vs vehicle,PND 50 STEM,↓ (1-1.49 times lower than vehicle)
same,N-arachidonoyl GABA level vs vehicle,PND 50 STEM,↓ (1-1.49 times lower than vehicle)
same,N-arachidonoyl phenylalanine level vs vehicle,PND 50 STEM,↑ (1-1.49 times higher than vehicle)
same,N-arachidonoyl serine level vs vehicle,PND 50 STEM,↓ (1-1.49 times lower than vehicle)
same,N-arachidonoyl taurine level vs vehicle,PND 50 STEM,↓ (1-1.49 times lower than vehicle)
same,N-arachidonoyl tyrosine level vs vehicle,PND 50 STEM,↓ (1-1.49 times lower than vehicle)
same,N-oleoyl methionine level vs vehicle,PND 50 STEM,↓ (1-1.49 times lower than vehicle)
same,N-palmitoyl leucine level vs vehicle,PND 50 STEM,↑ (1-1.49 times higher than vehicle)
same,N-palmitoyl tyrosine level vs vehicle,PND 50 STEM,↑ (1-1.49 times higher than vehicle)
same,Oleic Acid level vs vehicle,PND 50 STEM,↓ (1-1.49 times lower than vehicle)
same,PGE2 level vs vehicle,PND 50 STEM,↓ (1-1.49 times lower than vehicle)
same,PGF2α level vs vehicle,PND 50 STEM,↓ (1-1.49 times lower than vehicle)
same,2-arachidonoyl glycerol level vs vehicle,PND 50 STR,↓ (1-1.49 times lower than vehicle)
same,2-linoleoyl glycerol level vs vehicle,PND 50 STR,↓ (1-1.49 times lower than vehicle)
same,Arachidonic acid level vs vehicle,PND 50 STR,↓ (1-1.49 times lower than vehicle)
same,Linoleic acid level vs vehicle,PND 50 STR,↓ (1-1.49 times lower than vehicle)
same,N-arachidonoyl GABA level vs vehicle,PND 50 STR,↓ (1-1.49 times lower than vehicle)
same,N-arachidonoyl glycine level vs vehicle,PND 50 STR,↓↓ (1.50-1.99 times lower than vehicle)
same,N-arachidonoyl phenylalanine level vs vehicle,PND 50 STR,↓ (1-1.49 times lower than vehicle)
same,N-arachidonoyl taurine level vs vehicle,PND 50 STR,↓ (1-1.49 times lower than vehicle)
same,N-docosahexaenoyl GABA level vs vehicle,PND 50 STR,↓ (1-1.49 times lower than vehicle)
same,N-docosahexaenoyl glycine level vs vehicle,PND 50 STR,↓↓ (1.50-1.99 times lower than vehicle)
same,N-palmitoyl leucine level vs vehicle,PND 50 STR,↑ (1-1.49 times higher than vehicle)
same,N-palmitoyl tyrosine level vs vehicle,PND 50 STR,↑ (1-1.49 times higher than vehicle)
same,N-palmitoyl valine level vs vehicle,PND 50 STR,↑↑ (1.50-1.99 times higher than vehicle)
same,Oleic Acid level vs vehicle,PND 50 STR,↓ (1-1.49 times lower than vehicle)
same,PGF2α level vs vehicle,PND 50 STR,↑ (1-1.49 times higher than vehicle)
same,2-arachidonoyl glycerol level vs vehicle,PND 50 THAL,↓ (1-1.49 times lower than vehicle)
same,2-linoleoyl glycerol level vs vehicle,PND 50 THAL,↓ (1-1.49 times lower than vehicle)
same,2-oleoyl glycerol level vs vehicle,PND 50 THAL,↓ (1-1.49 times lower than vehicle)
same,6-ketoPGF1α level vs vehicle,PND 50 THAL,↑↑ (1.50-1.99 times higher than vehicle)
same,Arachidonic acid level vs vehicle,PND 50 THAL,↓ (1-1.49 times lower than vehicle)
same,Linoleic acid level vs vehicle,PND 50 THAL,↓ (1-1.49 times lower than vehicle)
same,N-arachidonoyl GABA level vs vehicle,PND 50 THAL,↓ (1-1.49 times lower than vehicle)
same,N-arachidonoyl ethanolamine level vs vehicle,PND 50 THAL,↓ (1-1.49 times lower than vehicle)
same,N-arachidonoyl glycine level vs vehicle,PND 50 THAL,↓↓ (1.50-1.99 times lower than vehicle)
same,N-arachidonoyl phenylalanine level vs vehicle,PND 50 THAL,↓↓ (1.50-1.99 times lower than vehicle)
same,N-arachidonoyl taurine level vs vehicle,PND 50 THAL,↓ (1-1.49 times lower than vehicle)
same,N-arachidonoyl tyrosine level vs vehicle,PND 50 THAL,↓ (1-1.49 times lower than vehicle)
same,N-docosahexaenoyl GABA level vs vehicle,PND 50 THAL,↓ (1-1.49 times lower than vehicle)
same,N-linoleoyl GABA level vs vehicle,PND 50 THAL,↓↓ (1.50-1.99 times lower than vehicle)
same,N-palmitoyl leucine level vs vehicle,PND 50 THAL,↑ (1-1.49 times higher than vehicle)
same,N-palmitoyl serine level vs vehicle,PND 50 THAL,↓ (1-1.49 times lower than vehicle)
same,N-stearoyl serine level vs vehicle,PND 50 THAL,↓ (1-1.49 times lower than vehicle)
same,Oleic Acid level vs vehicle,PND 50 THAL,↓ (1-1.49 times lower than vehicle)
same,PGE2 level vs vehicle,PND 50 THAL,↓ (1-1.49 times lower than vehicle)
same,PGF2α level vs vehicle,PND 50 THAL,↓ (1-1.49 times lower than vehicle)
same,changes in NAEs (all decreases),PND 50 brain,16
same,changes in lipoamines derived from AA,PND 50 brain,41
same,decreases in 2-acyl glycerol levels,PND 50 brain,17
same,decreases in PG levels,PND 50 brain,11
same,decreases in free fatty acid levels,PND 50 brain,16
same,increases in PG levels,PND 50 brain,7
same,percentage of detected lipids modified with acute CP,"PND 50 brain, 450 detected",31.33%
same,total changes in lipid levels across the eight regions,adult,97
same,2-arachidonoyl glycerol level vs vehicle,adult CER,↓ (1-1.49 times lower than vehicle)
same,2-linoleoyl glycerol level vs vehicle,adult CER,↓↓ (1.50-1.99 times lower than vehicle)
same,2-oleoyl glycerol level vs vehicle,adult CER,↓ (1-1.49 times lower than vehicle)
same,6-ketoPGF1α level vs vehicle,adult CER,↓ (1-1.49 times lower than vehicle)
same,Arachidonic acid level vs vehicle,adult CER,↓ (1-1.49 times lower than vehicle)
same,Linoleic acid level vs vehicle,adult CER,↓↓ (1.50-1.99 times lower than vehicle)
same,N-arachidonoyl GABA level vs vehicle,adult CER,↓↓ (1.50-1.99 times lower than vehicle)
same,N-arachidonoyl ethanolamine level vs vehicle,adult CER,↓↓ (1.50-1.99 times lower than vehicle)
same,N-arachidonoyl phenylalanine level vs vehicle,adult CER,↓↓↓ (2-2.99 times lower than vehicle)
same,N-arachidonoyl taurine level vs vehicle,adult CER,↓ (1-1.49 times lower than vehicle)
same,N-docosahexaenoyl GABA level vs vehicle,adult CER,↓ (1-1.49 times lower than vehicle)
same,N-docosahexaenoyl ethanolamine level vs vehicle,adult CER,↓ (1-1.49 times lower than vehicle)
same,N-linoleoyl GABA level vs vehicle,adult CER,↓ (1-1.49 times lower than vehicle)
same,N-linoleoyl ethanolamine level vs vehicle,adult CER,↓↓ (1.50-1.99 times lower than vehicle)
same,N-oleoyl serine level vs vehicle,adult CER,↓ (1-1.49 times lower than vehicle)
same,N-oleoyl valine level vs vehicle,adult CER,↑↑↑ (2-2.99 times higher than vehicle)
same,N-palmitoyl tyrosine level vs vehicle,adult CER,↓ (1-1.49 times lower than vehicle)
same,Oleic Acid level vs vehicle,adult CER,↓↓ (1.50-1.99 times lower than vehicle)
same,PGE2 level vs vehicle,adult CER,↓ (1-1.49 times lower than vehicle)
same,PGF2α level vs vehicle,adult CER,↓ (1-1.49 times lower than vehicle)
same,changes in lipid levels that were decreases,adult CER,20
same,changes in lipid levels that were increases,adult CER,1
same,phosphoLEA level vs vehicle,adult CER,↓ (1-1.49 times lower than vehicle)
same,number of lipids changed,"adult CER, 53 detected",21
same,2-linoleoyl glycerol level vs vehicle,adult CTX,↓ (1-1.49 times lower than vehicle)
same,6-ketoPGF1α level vs vehicle,adult CTX,↓ (1-1.49 times lower than vehicle)
same,Arachidonic acid level vs vehicle,adult CTX,↓ (1-1.49 times lower than vehicle)
same,N-arachidonoyl taurine level vs vehicle,adult CTX,↓ (1-1.49 times lower than vehicle)
same,N-linoleoyl GABA level vs vehicle,adult CTX,↓ (1-1.49 times lower than vehicle)
same,N-palmitoyl valine level vs vehicle,adult CTX,↑ (1-1.49 times higher than vehicle)
same,N-stearoyl phenylalanine level vs vehicle,adult CTX,↓↓ (1.50-1.99 times lower than vehicle)
same,PGF2α level vs vehicle,adult CTX,↓ (1-1.49 times lower than vehicle)
same,number of lipids changed,"adult CTX, 58 detected",eight
same,2-linoleoyl glycerol level vs vehicle,adult HIPP,↓ (1-1.49 times lower than vehicle)
same,N-arachidonoyl GABA level vs vehicle,adult HIPP,↓ (1-1.49 times lower than vehicle)
same,N-arachidonoyl alanine level vs vehicle,adult HIPP,↓ (1-1.49 times lower than vehicle)
same,N-arachidonoyl glycine level vs vehicle,adult HIPP,↓ (1-1.49 times lower than vehicle)
same,N-arachidonoyl phenylalanine level vs vehicle,adult HIPP,↓↓ (1.50-1.99 times lower than vehicle)
same,N-docosahexaenoyl GABA level vs vehicle,adult HIPP,↓ (1-1.49 times lower than vehicle)
same,N-oleoyl GABA level vs vehicle,adult HIPP,↓ (1-1.49 times lower than vehicle)
same,N-oleoyl phenylalanine level vs vehicle,adult HIPP,↓ (1-1.49 times lower than vehicle)
